From PubChem BioAssay (NCI) come the findings set out here.

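A five-concentration, 48-hour dose response in 96-well plates underlies each endpoint, interpolated linearly between surrounding concentrations. At the GI50, growth is halved. TGI: total growth inhibition.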

Assay in all cases: growth of human tumour cells (NCI), 48 h
Assay [1] has as its system EKVX NSCLC.
Assay [2] deals with MALME-3M melanoma.
The subject of assay [3] is OVCAR-4 ovarian.
The test system of assay [4] is UO-31 renal.
The subject of assay [5] is SK-MEL-5 melanoma.
Assay [6] deals with BT-549 breast.
Assay [7] relates to NCI/ADR-RES ovarian.
Assay [8] relates to OVCAR-5 ovarian.
For assay [9], the system named is MCF7 breast.
For assay [10], the system named is SN12C renal.

`COC(=O)c1c2c(c(C)[n+]([O-])c1C)C(=O)C=C(NCc1ccccc1)C2=O`: the GI50 in assay [1] is 1.14 µM; in assay [2], 0.147 µM; in assay [3], 0.283 µM; in assay [4], 1.35 µM; in assay [5] it was 0.206 µM; in assay [6] it was 1.45 µM. The GI50 in [7] is 0.453 µM; in [8], 1.35 µM; in assay [9], 0.26 µM; in assay [10] it was 0.356 µM. The TGI was found to be 2.55 µM in [1]; 0.353 µM in assay [2]; 1.18 µM in [3]; 2.65 µM in [4]; 0.48 µM in assay [5]; 2.92 µM in assay [6]. The TGI worked out at 2.95 µM in assay [7], 2.7 µM in [8], 0.892 µM in [9] and 1.39 µM in assay [10].
In the case of `NC(=N\N=C/c1ccc(O)cc1)/C(N)=N\N=C/c1ccc(O)cc1`, the GI50 in assay [1] is above 87.9 µM; in assay [2], above 100 µM; in [3] it was above 90.1 µM; in assay [4], 1.21 µM; in [5], 3.06 µM; in assay [6], 77.5 µM. In addition, the GI50 is above 100 µM in assay [7], above 100 µM in [8], above 100 µM in assay [9] and above 31 µM in assay [10]. For the same compound, the TGI was above 100 µM in assay [1]; above 100 µM in [2]; above 100 µM in assay [3]; above 100 µM in [4]; 73.1 µM in [5]; above 100 µM in assay [6]. The TGI in assay [7], in assay [8], in assay [9] and in assay [10] was above 100 µM each time.
In the case of `COC(=O)c1cc(-c2ccccc2)[nH]c1N/N=C/c1c(Cl)cccc1Cl`, the GI50 in assay [1] is 0.454 µM; in [2], 0.34 µM; in assay [3], 0.729 µM; in assay [4], 0.609 µM; in [5], 0.335 µM; in assay [6], 0.466 µM. For the same compound, the GI50 in assay [7] was 0.22 µM; in assay [8] it was 0.732 µM; in assay [9], 0.266 µM; in assay [10], 0.518 µM. The TGI was above 37.3 µM in assay [1]; 6.67 µM in assay [2]; above 28.6 µM in [3]; above 56.3 µM in [4]; 1.89 µM in [5]; 6.69 µM in [6]. The TGI is 0.77 µM in assay [7], 16.7 µM in [8], 4.85 µM in assay [9] and above 36.6 µM in assay [10].
For `C(/C=N/NC1=NCCCCN1)=N\NC1=NCCCCN1`, the TGI in assay [1], in assay [2], in assay [3], in [4], in assay [5] and in [6] was above 100 µM in each case. Also, the TGI in [7], in assay [8], in assay [9] and in assay [10] was above 100 µM each time.
As to `C=CC(=O)N1CCC(c2ccc(C(N)=O)c(-c3ccc(Oc4ccccc4)cc3)n2)CC1`, the GI50 is 21.5 µM in [1]; 36.1 µM in assay [2]; 21.6 µM in assay [3]; 12.9 µM in assay [4]; 20.6 µM in assay [5]; 22.7 µM in assay [6]. Moreover, the GI50 in assay [7] was 30.3 µM; in assay [8] it was above 100 µM; in assay [9], 22.7 µM; in assay [10], 28.2 µM. The TGI is above 100 µM in assay [1]; above 100 µM in [2]; above 100 µM in assay [3]; above 100 µM in assay [4]; 41.9 µM in [5]; 95.4 µM in assay [6]. For the same compound, the TGI in assay [7], in assay [8], in assay [9] and in assay [10] was above 100 µM in each case.
As to `Nc1ccn(C2CC(F)C(CO)O2)c(=O)n1` (stereo not given), the GI50 in assay [1], in [2], in assay [3], in [4], in assay [5] and in [6] was above 100 µM throughout. The GI50 in assay [7], in assay [8], in assay [9] and in assay [10] was above 100 µM throughout. The TGI in assay [1], in [2], in [3], in assay [4], in [5] and in assay [6] was above 100 µM throughout. Further, the TGI in assay [7], in [8], in assay [9] and in [10] was above 100 µM each time.
Take `O=[N+]([O-])c1cc[n+]([O-])c2ccccc12`: the GI50 is 1.22 µM in assay [1]; 0.147 µM in assay [2]; 1.78 µM in assay [3]; 0.191 µM in [4]; 0.184 µM in [5]; 0.2 µM in [6]. For the same compound, the GI50 in assay [7] is 0.965 µM; in [8] it was 2.42 µM; in assay [9], 0.047 µM; in [10] it was 0.244 µM. The TGI in [1] turned out to be 3.98 µM; in [2] it was 1.12 µM; in assay [3] it was 3.17 µM; in assay [4], 0.604 µM; in [5], 0.437 µM; in assay [6], 0.728 µM. In addition, the TGI is 4.86 µM in assay [7], 6.1 µM in assay [8], 2.2 µM in assay [9] and 1.13 µM in [10].
For `O=C(CCN1CCCC1)Nc1ccc2c(NCc3ccccc3)c3ccccc3nc2c1`, the GI50 is 0.448 µM in assay [1]; 0.605 µM in assay [2]; 0.381 µM in assay [3]; 1.55 µM in assay [4]; 1.31 µM in assay [5]; 1.4 µM in assay [6]. The GI50 was 11.9 µM in [7], 0.424 µM in assay [8], 0.286 µM in [9] and 0.332 µM in [10]. The TGI in assay [1] was found to be 2.34 µM; in assay [2], 1.99 µM; in assay [3], 1.63 µM; in [4], 4.05 µM; in assay [5] it was 2.61 µM; in assay [6], 3.04 µM. The TGI in [7] is 55 µM; in [8], 2.06 µM; in assay [9], 1.18 µM; in [10], 1.52 µM.
